≈ marks a conversion by molar mass, not a printed value.
Key:
Assay in all cases: Microdilution MIC assay (NCCLS M7-A)
Type in all cases: cell-based
[1] = tested on: Pseudomonas aeruginosa SG 137; conditions: strain SG137; for MIC: Pseudomonas aeruginosa
Experimental: (§1) The antibacterial activity was tested by a microdilution assay according to National Committee for Clinical Laboratory Standards, 1998, Methods for dilution antimicrobial susceptibility tests for bacteria that grow aerobically, Approved standard M7-A, NCCLS, Villanova, Pa.
(§2) The minimal inhibition concentrations (MICs) were determined for the following bacterial strains: The Gram-negative strains Pseudomonas aeruginosa SG 137, ATCC 27853, Escherichia coli ATCC 25922, Klebsiella pneumoniae ATCC 10031, Stenotrophomonas maltophilia GN 12873, Serratia marcescens SG 621 as well as for the Gram-positive strain Staphylococcus aureus SG 511.

[2] = tested on: Pseudomonas aeruginosa ATCC 27853; conditions: strain ATCC 27853; for MIC: Pseudomonas aeruginosa, ATCC27853
Experimental: as §1, §2

[3] = tested on: Serratia marcescens SG 621; conditions: strain SG621; for MIC: Serratia marcescens, read-out: MIC Serratia marc. SG621
Experimental: as §1, §2

[4] = tested on: Escherichia coli ATCC 25922; conditions: strain ATCC 25922; for MIC: Escherichia coli, ATCC25922, read-out: MIC E. coli ATCC 25922
Experimental: as §1, §2

[5] = tested on: Stenotrophomonas maltophilia GN 12873; conditions: strain GN12873; for MIC: Stenotrophomonas maltophilia, read-out: MIC Stenotroph. maltoph. GN12873
Experimental: as §1, §2

[6] = tested on: Klebsiella pneumoniae ATCC 10031; conditions: strain ATCC10031; for MIC: Klebsiella pneumoniae
Experimental: as §1, §2

[7] = tested on: Staphylococcus aureus SG 511; conditions: strain SG511; for MIC: Staphylococcus aureus, read-out: MIC Staph. aureus SG511
Experimental: as §1, §2

Compound | MIC [1] | MIC [2] | MIC [3] | MIC [4] | MIC [5] | MIC [6] | MIC [7] | MIC Pseudomonas aeruginosa SG137 [1] | MIC Pseudomonas aeruginosa ATCC 27853 [2] | MIC Serratia marc. SG621 [3] | MIC E. coli ATCC 25922 [4] | MIC Stenotroph. maltoph. GN12873 [5] | MIC Klebsiella pneumoniae ATCC10031 [6] | MIC Staph. aureus SG511 [7]
C[C@@H](O)[C@H]1C(=O)N2C(C(=O)O)=C(S[C@@H]3CN[C@H](C(=O)N(C)C)C3)[C@H](C)[C@H]12 [meropenem, reference compound] | 0.2 µg/mL (≈ 0.522 µM) | 0.4 µg/mL (≈ 1.04 µM) | 0.06 µg/mL (≈ 0.156 µM) | 0.04 µg/mL (≈ 0.104 µM) | > 100 µg/mL | 0.04 µg/mL (≈ 0.104 µM) | 0.1 µg/mL (≈ 0.261 µM) |  |  |  |  |  |  | 
CC(=O)Oc1cccc(C(=O)NCCN(CCNC(=O)c2cccc(OC(C)=O)c2OC(C)=O)CCN(Cc2ccc(C(=O)NC(C(=O)NC3C(=O)N4C3SC(C)(C)C4C(=O)O)c3ccccc3)cc2)C(=O)c2cccc(OC(C)=O)c2OC(C)=O)c1OC(C)=O (stereo not drawn) [Example 15] |  |  |  |  |  |  |  | <0.05 µg/mL | 0.2 µg/mL (≈ 0.157 µM) | 0.4 µg/mL (≈ 0.314 µM) | 0.78 µg/mL (≈ 0.613 µM) | <0.05 µg/mL | 0.1 µg/mL (≈ 0.0786 µM) | 0.78 µg/mL (≈ 0.613 µM)
CC1(C)S[C@@H]2[C@H](NC(=O)[C@H](N)c3ccccc3)C(=O)N2[C@H]1C(=O)O [ampicillin, reference compound] | > 100 µg/mL | > 100 µg/mL | 25 µg/mL (≈ 71.5 µM) | 6.25 µg/mL (≈ 17.9 µM) | > 100 µg/mL | 6.25 µg/mL (≈ 17.9 µM) | 0.4 µg/mL (≈ 1.14 µM) |  |  |  |  |  |  | 
CC(=O)Oc1cccc(C(=O)NCCCN(CCN(CCCN(Cc2ccc(C(=O)N[C@@H](C(=O)N[C@@H]3C(=O)N4[C@@H]3SC(C)(C)[C@@H]4C(=O)O)c3ccccc3)cc2)C(=O)c2cccc(OC(C)=O)c2OC(C)=O)C(=O)c2cccc(OC(C)=O)c2OC(C)=O)C(=O)c2cccc(OC(C)=O)c2OC(C)=O)c1OC(C)=O [Example 20, N-{4-[2,6,9,13-Tetrakis-(2,3-diacetoxybenzoyl)-2,6,9,13-tetraaza-tridecyl]-benzoyl}-ampicillin] |  |  |  |  |  |  |  | 0.4 µg/mL (≈ 0.263 µM) | 1.56 µg/mL (≈ 1.03 µM) | 1.56 µg/mL (≈ 1.03 µM) | 1.56 µg/mL (≈ 1.03 µM) | 0.2 µg/mL (≈ 0.132 µM) | 0.78 µg/mL (≈ 0.513 µM) | 6.25 µg/mL (≈ 4.11 µM)
COC(=O)Oc1cccc(C(=O)N(C)CCCN(Cc2ccc(C(=O)NC(C(=O)NC3C(=O)N4C3SC(C)(C)C4C(=O)O)c3ccccc3)cc2)C(=O)c2cccc(OC(=O)OC)c2OC(=O)OC)c1OC(=O)OC (stereo not drawn) [Example 16, N-{4-[2,6-bis-(2,3-di-methoxycarbonyloxybenzoyl)-2,6-diaza-heptyl]-benzoyl}-ampicillin] |  |  |  |  |  |  |  | <0.05 µg/mL | 0.78 µg/mL (≈ 0.737 µM) | 1.56 µg/mL (≈ 1.47 µM) | 0.4 µg/mL (≈ 0.378 µM) | <0.05 µg/mL | 0.1 µg/mL (≈ 0.0945 µM) | 1.56 µg/mL (≈ 1.47 µM)
COC(=O)Oc1cc(Br)cc(C(=O)N(C)CCCN(CC(=O)NC(C(=O)NC2C(=O)N3C2SC(C)(C)C3C(=O)O)c2ccccc2)C(=O)c2cc(Br)cc(OC(=O)OC)c2OC(=O)OC)c1OC(=O)OC (stereo not drawn) [Example 8, N-{3,7-Bis-[5-brom-2,3-di-(methoxycarbonyloxy)-benzoyl]-3,7-diaza-octanoyl}-ampicillin] |  |  |  |  |  |  |  | <0.005 µg/mL | 0.05 µg/mL (≈ 0.0439 µM) | 0.02 µg/mL (≈ 0.0175 µM) | <0.005 µg/mL | 0.02 µg/mL (≈ 0.0175 µM) | <0.005 µg/mL | 6.25 µg/mL (≈ 5.48 µM)
